Patent publication US20120315654A1, “COMPOSITIONS AND METHODS FOR DETECTING CARDIOTOXICITY” (DUKE UNIVERSITY, priority 2011, published 2012)
Blank lines part the entries; values can stand above or below the molecule they belong to.

What was measured:
CrT [1] = target: T1, CrT (Homo sapiens, UniProt P48029); assay: 14C-Cr transport in HL-1 cells expressing the human CrT protein (dose-response, time course, kinetics); assay type: cell-based; conditions: HL-1 cells expressing human CrT, Michaelis-Menten, no DOX
T1 construct: swapped with the corresponding fragment from the human full-length open reading frame; expressed in transfected cells; host or cells: HL-1 murine atrial cardiomyocyte line, transient transfection with pcDNA3.1(-) human CrT cDNA
T1 sequence (P48029 1-635): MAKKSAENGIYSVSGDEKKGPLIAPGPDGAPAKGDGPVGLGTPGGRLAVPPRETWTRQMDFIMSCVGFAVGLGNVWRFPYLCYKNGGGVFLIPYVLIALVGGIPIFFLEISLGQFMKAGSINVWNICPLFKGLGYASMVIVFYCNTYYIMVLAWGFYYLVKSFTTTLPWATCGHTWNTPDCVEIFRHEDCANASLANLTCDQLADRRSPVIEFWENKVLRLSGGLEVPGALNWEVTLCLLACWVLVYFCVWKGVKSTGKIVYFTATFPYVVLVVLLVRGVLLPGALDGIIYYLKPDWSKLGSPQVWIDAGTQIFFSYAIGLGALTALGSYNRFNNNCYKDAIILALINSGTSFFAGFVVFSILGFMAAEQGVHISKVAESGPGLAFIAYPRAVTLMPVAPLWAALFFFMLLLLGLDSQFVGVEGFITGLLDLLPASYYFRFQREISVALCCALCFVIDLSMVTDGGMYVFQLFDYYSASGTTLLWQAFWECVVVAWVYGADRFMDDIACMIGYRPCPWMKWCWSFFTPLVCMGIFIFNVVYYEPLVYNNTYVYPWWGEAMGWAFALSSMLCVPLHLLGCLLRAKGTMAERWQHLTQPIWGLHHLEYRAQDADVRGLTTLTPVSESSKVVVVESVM
Description: The cultures were maintained in a humidified atmosphere of 5% CO2 at 37° C.
(§1) Cells used for Cr transport assays were cultured in 24-well plates coated with fibronectin and gelatin. The wells were washed twice with room temperature choline buffer (150 mmol/L choline chloride; 1 mmol/L CaCl2; 5 mmol/L MgCl2; 2 mmol/L KCl; and 5 mmol/L HEPES-Tris, pH 7.5).
(§2) The cells were lysed with 500 mmol/L NaOH and heated to 80° C. for 30 min. 100 μl of cell lysate was subjected to scintillation counting using a BECKMAN COULTER LS 6500 scintillation counter. Cr transport was normalized to the protein concentration measured using the bicinchoninic acid (BCA) protein assay (PIERCE BIOTECHNOLOGY, Rockford, Ill.).

Cr transport = target: T2, Cr transport (Homo sapiens, UniProt P48029); conditions: Dai W. et al., 1999; read-out: IC50 for inhibition of Cr transport; cited from earlier work
T2 sequence (P48029 1-635): T1 sequence (P48029 1-635)

CrT [2] = target: T1, CrT; assay: DOX competition assay: 14C-Cr uptake in the presence of DOX and/or B-GPA; assay type: cell-based; conditions: acute exposure during uptake; 2 μmol/L DOX, 100 μmol/L B-GPA; control = 1.00
Description: as §1, §2

[3] = substrate: CN(CC(=O)O)C(=N)N; assay: 14C-Cr transport in HL-1 cells expressing the human CrT protein (dose-response, time course, kinetics); assay type: cell-based; conditions: other: HL-1 cells expressing human CrT, Michaelis-Menten, no DOX; pH 7.5
Description: Cells were plated on tissue culture dishes pre-coated with gelatin/fibronectin and allowed to grow in M199 media (INVITROGEN, Carlsbad, Calif.) containing 2% serum before experimentation. […] The cultures were maintained in a humidified atmosphere of 5% CO2 at 37° C.
Cultures intended for Cr transport measurements were grown in 24-well culture plates, whereas those used to characterize the CrT protein were cultured in 6-well dishes.
Cr transport assays were performed after growth in control media for 0, 4, 12, 24 or 48 hrs.
For experiments with RNCM, each condition was tested in quadruplicate. Measurements were performed in triplicate for experiments performed using HL-1 cells.

- Cr transport Vmax (CrT [1]): 42.9±5.24 nmol/mg protein
Molecule: CN(CC(=O)O)C(=N)N [Cr, Creatine]

- Relative Vmax ± SEM (CrT [2]): 0.43 ± 0.11
Molecule: NC(N)=NCCC(=O)O [β-GPA]
- IC50 (Cr transport): 50 µM

B1: human CrT (Homo sapiens) (protein)
chain: T1 sequence (P48029 1-635)
notes: swapped with the corresponding fragment from the human full-length open reading frame; expressed in transfected cells; host or cells: HL-1 murine atrial cardiomyocyte line, transient transfection with pcDNA3.1(-) human CrT cDNA
- Km [3]: 63.5 ± 2.37 µM
